Laboratory results published in patent US20240376084A1, “INHIBITORS OF ALPHA-HEMOLYSIN OF STAPHYLOCOCCUS AUREUS” (Helmholtz-Zentrum Fur Infektionsforschung GmbH, priority 2021, published 2024).
pEC50, pIC50: −log10 of the molar value.

Assays:
[1] = molecular target: hemolysin alpha from Staphylococcus aureus (Staphylococcus aureus, UniProt P09616); test: cell-based
[2] = molecular target: S. aureus Alpha hemolysin (Staphylococcus aureus, UniProt P09616); test: cell-based; conditions: A549-LDH Assay activity
S. aureus Alpha hemolysin, sequence (P09616 27-319 limits assumed): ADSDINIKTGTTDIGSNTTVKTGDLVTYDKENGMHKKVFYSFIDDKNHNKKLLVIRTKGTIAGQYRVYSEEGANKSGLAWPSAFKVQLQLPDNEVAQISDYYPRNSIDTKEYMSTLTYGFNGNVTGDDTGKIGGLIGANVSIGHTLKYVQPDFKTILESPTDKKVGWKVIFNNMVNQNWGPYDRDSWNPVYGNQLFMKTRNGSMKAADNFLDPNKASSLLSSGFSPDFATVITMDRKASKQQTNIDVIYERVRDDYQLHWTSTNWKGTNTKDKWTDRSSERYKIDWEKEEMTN

hemolysin alpha from Staphylococcus aureus, sequence (P09616 27-319 limits assumed): as above

| Structure (SMILES) | pEC50 [1] | pEC50 [2] | pIC50 [1] |
| --- | --- | --- | --- |
| Cc1cc2[nH]c(=O)c(=O)[nH]c2cc1S(=O)(=O)Nc1ccc(-c2ccc(F)cc2)c(OC(F)(F)F)c1 [Compound 327, N-[4-(4-fluorophenyl)-3-(trifluoromethoxy)phenyl]-7-methyl-2,3-dioxo-1,4-dihydroquinoxaline-6-sulfonamide] | 6.00 to 7.00 | 6.00 to 7.00 | – |
| Cc1cc2[nH]c(=O)c(=O)[nH]c2cc1S(=O)(=O)Nc1ccc(-c2ccc3nccn3c2)c(Cl)c1 [Compound 328, N-(3-chloro-4-imidazo[1,2-a]pyridin-6-yl-phenyl)-7-methyl-2,3-dioxo-1,4-dihydroquinoxaline-6-sulfonamide] | 6.00 to 7.00 | 6.00 to 7.00 | – |
| Cc1cc2[nH]c(=O)c(=O)[nH]c2cc1S(=O)(=O)Nc1ccc(-c2cc[nH]c(=O)c2)c(Cl)c1 [Compound 280, N-[3-chloro-4-(2-oxo-1H-pyridin-4-yl)phenyl]-7-methyl-2,3-dioxo-1,4-dihydroquinoxaline-6-sulfonamide] | 5.46 to 6.00 | 6.00 to 7.00 | – |
| Cc1cc2[nH]c(=O)c(=O)[nH]c2cc1S(=O)(=O)Nc1ccc(-c2ccc3c(c2)NC(=O)CO3)c(Cl)c1 [Compound 355, N-[3-chloro-4-(3-oxo-4H-1,4-benzoxazin-6-yl)phenyl]-7-methyl-2,3-dioxo-1,4-dihydroquinoxaline-6-sulfonamide] | > 7.52 | > 7.52 | – |
| Cc1cc2[nH]c(=O)c(=O)[nH]c2cc1S(=O)(=O)Nc1ccc(-c2cccc(S(=O)(=O)N(C)C)c2)c(Cl)c1 [Compound 335, N-[3-chloro-4-[3-(dimethylsulfamoyl)phenyl]phenyl]-7-methyl-2,3-dioxo-1,4-dihydroquinoxaline-6-sulfonamide] | 6.00 to 7.00 | 5.22 to 6.00 | – |
| Cc1cc2[nH]c(=O)c(=O)[nH]c2cc1S(=O)(=O)Nc1ccc(-c2ccc(OC(F)(F)F)cc2)c(Cl)c1 [Compound 277, N-[3-chloro-4-[4-(trifluoromethoxy)phenyl]phenyl]-7-methyl-2,3-dioxo-1,4-dihydroquinoxaline-6-sulfonamide] | 6.00 to 7.00 | 6.00 to 7.00 | – |
| Cc1cc(NS(=O)(=O)c2cc3[nH]c(=O)c(=O)[nH]c3cc2F)cc(C)c1-c1ccccc1 [Compound 74, N-(2,6-dimethyl-[1,1′-biphenyl]-4-yl)-7-fluoro-2,3-dioxo-1,2,3,4-tetrahydroquinoxaline-6-sulfonamide] | – | 6.00 to 7.00 | 6.00 to 7.00 |
| Cc1cc(NS(=O)(=O)c2cc3[nH]c(=O)c(=O)[nH]c3cc2C)ccc1C(F)(F)F [Compound 91, 7-methyl-N-(3-methyl-4-(trifluoromethyl)phenyl)-2,3-dioxo-1,2,3,4-tetrahydroquinoxaline-6-sulfonamide] | – | 6.00 to 7.00 | 6.00 to 7.00 |
| Cc1cc2[nH]c(=O)c(=O)[nH]c2cc1S(=O)(=O)Nc1ccc(-c2cccc(N3CCCC3)c2)c(Cl)c1 [Compound 6, N-(2-chloro-3′-(pyrrolidin-1-yl)-[1,1′-biphenyl]-4-yl)-7-methyl-2,3-dioxo-1,2,3,4-tetrahydroquinoxaline-6-sulfonamide] | – | 6.00 to 7.00 | > 7.52 |
| Cc1cc2[nH]c(=O)c(=O)[nH]c2cc1S(=O)(=O)Nc1ccc(I)c(C(F)(F)F)c1 [Compound 325, N-[4-iodo-3-(trifluoromethyl)phenyl]-7-methyl-2,3-dioxo-1,4-dihydroquinoxaline-6-sulfonamide] | 6.00 to 7.00 | 5.22 to 6.00 | – |
| Cc1cc2[nH]c(=O)c(=O)[nH]c2cc1S(=O)(=O)Nc1ccc(-c2ccc3c(c2)NCC3)c(Cl)c1 [Compound 13, N-(3-chloro-4-(indolin-6-yl)phenyl)-7-methyl-2,3-dioxo-1,2,3,4-tetrahydroquinoxaline-6-sulfonamide] | – | 6.00 to 7.00 | > 7.52 |
| Cc1cc2[nH]c(=O)c(=O)[nH]c2cc1S(=O)(=O)Nc1ccc(-c2cccc(CO)c2)c(Cl)c1 [Compound 333, N-[3-chloro-4-[3-(hydroxymethyl)phenyl]phenyl]-7-methyl-2,3-dioxo-1,4-dihydroquinoxaline-6-sulfonamide] | 7.00 to 7.52 | 6.00 to 7.00 | – |
| Cc1cc2[nH]c(=O)c(=O)[nH]c2cc1S(=O)(=O)Nc1ccc(-c2ccoc2)c(Cl)c1 [Compound 22, N-(3-chloro-4-(furan-3-yl)phenyl)-7-methyl-2,3-dioxo-1,2,3,4-tetrahydroquinoxaline-6-sulfonamide] | – | 6.00 to 7.00 | > 7.52 |
| Cc1cc2[nH]c(=O)c(=O)[nH]c2cc1S(=O)(=O)Nc1ccc(C(C)C)cc1 [Compound 76, N-(4-isopropylphenyl)-7-methyl-2,3-dioxo-1,2,3,4-tetrahydroquinoxaline-6-sulfonamide] | – | 6.00 to 7.00 | 6.00 to 7.00 |
| Cc1cc(NS(=O)(=O)c2cc3[nH]c(=O)c(=O)[nH]c3cc2Cl)ccc1-c1ccoc1 [Compound 88, 7-chloro-N-(4-(furan-3-yl)-3-methylphenyl)-2,3-dioxo-1,2,3,4-tetrahydroquinoxaline-6-sulfonamide] | – | 6.00 to 7.00 | 7.00 to 7.52 |
| COc1ccc(-c2ncc(NS(=O)(=O)c3cc4[nH]c(=O)c(=O)[nH]c4cc3C)cc2Cl)cc1F [Compound 303, N-[5-chloro-6-(3-fluoro-4-methoxy-phenyl)-3-pyridyl]-7-methyl-2,3-dioxo-1,4-dihydroquinoxaline-6-sulfonamide] | 6.00 to 7.00 | 6.00 to 7.00 | – |

| Structure (SMILES) | pEC50 [1] | pEC50 [2] | pIC50 [1] |
| --- | --- | --- | --- |
| Cc1nc2cc(-c3ccc(NS(=O)(=O)c4cc5[nH]c(=O)c(=O)[nH]c5cc4C)cc3Cl)ccc2o1 [Compound 272, N-[3-chloro-4-(2-methyl-1,3-benzoxazol-5-yl)phenyl]-7-methyl-2,3-dioxo-1,4-dihydroquinoxaline-6-sulfonamide] | > 7.52 | > 7.52 | – |
| Cc1cc2[nH]c(=O)c(=O)[nH]c2cc1S(=O)(=O)Nc1ccc(C2CC2)cc1 [Compound 53, N-(4-cyclopropylphenyl)-7-methyl-2,3-dioxo-1,2,3,4-tetrahydroquinoxaline-6-sulfonamide] | – | > 7.52 | 7.00 to 7.52 |
| O=c1[nH]c2cc(F)c(S(=O)(=O)Nc3ccc(-c4ccccc4)cc3)cc2[nH]c1=O [Compound 64, N-([1,1′-biphenyl]-4-yl)-7-fluoro-2,3-dioxo-1,2,3,4-tetrahydroquinoxaline-6-sulfonamide] | – | 6.00 to 7.00 | 7.00 to 7.52 |
| Cc1cc2[nH]c(=O)c(=O)[nH]c2cc1S(=O)(=O)Nc1ccc(-c2ccc(F)c(C#N)c2)c(Cl)c1 [Compound 393, N-[3-chloro-4-(3-cyano-4-fluoro-phenyl)phenyl]-7-methyl-2,3-dioxo-1,4-dihydroquinoxaline-6-sulfonamide] | 7.00 to 7.52 | 6.00 to 7.00 | – |
| Cc1cc2[nH]c(=O)c(=O)[nH]c2cc1S(=O)(=O)Nc1ccc(-c2ccn3ncnc3c2)c(Cl)c1 [Compound 337, N-[3-chloro-4-([1,2,4]triazolo[1,5-a]pyridin-7-yl)phenyl]-7-methyl-2,3-dioxo-1,4-dihydroquinoxaline-6-sulfonamide] | 7.00 to 7.52 | 7.00 to 7.52 | – |
| Cc1cc2[nH]c(=O)c(=O)[nH]c2cc1S(=O)(=O)Nc1cc(Cl)c(-c2ccc(F)c(Cl)c2)cn1 [Compound 211, N-(4-chloro-5-(3-chloro-4-fluorophenyl)pyridin-2-yl)-7-methyl-2,3-dioxo-1,2,3,4-tetrahydroquinoxaline-6-sulfonamide] | 6.00 to 7.00 | 6.00 to 7.00 | – |
| O=c1[nH]c2cc(Cl)c(S(=O)(=O)Nc3ccc(C(F)(F)F)cc3)cc2[nH]c1=O [Compound 93, 7-chloro-2,3-dioxo-N-(4-(trifluoromethyl)phenyl)-1,2,3,4-tetrahydroquinoxaline-6-sulfonamide] | – | 6.00 to 7.00 | 6.00 to 7.00 |
| CC(=O)c1ccccc1-c1ccc(NS(=O)(=O)c2cc3[nH]c(=O)c(=O)[nH]c3cc2C)cc1 [Compound 123, N-(2′-acetyl-[1,1′-biphenyl]-4-yl)-7-methyl-2,3-dioxo-1,2,3,4-tetrahydroquinoxaline-6-sulfonamide] | – | 5.22 to 6.00 | 6.00 to 7.00 |
| Cc1cc2[nH]c(=O)c(=O)[nH]c2cc1S(=O)(=O)Nc1cc(C)c(-c2sccc2C)c(C)c1 [Compound 132, N-(3,5-dimethyl-4-(3-methylthiophen-2-yl)phenyl)-7-methyl-2,3-dioxo-1,2,3,4-tetrahydroquinoxaline-6-sulfonamide] | – | 6.00 to 7.00 | 6.00 to 7.00 |
| Cc1cc2[nH]c(=O)c(=O)[nH]c2cc1S(=O)(=O)Nc1ccc(-c2ccc(F)cc2)c(N2CCOCC2)c1 [Compound 250, N-[4-(4-fluorophenyl)-3-morpholino-phenyl]-7-methyl-2,3-dioxo-1,4-dihydroquinoxaline-6-sulfonamide] | 6.00 to 7.00 | 5.22 to 6.00 | – |
| CC(C)c1cc2[nH]c(=O)c(=O)[nH]c2cc1S(=O)(=O)Nc1ccc(OC(F)(F)F)cc1 [Compound 31, 7-isopropyl-2,3-dioxo-N-(4-(trifluoromethoxy)phenyl)-1,2,3,4-tetrahydroquinoxaline-6-sulfonamide] | – | > 7.52 | > 7.52 |
| O=c1[nH]c2cc(C3CC3)c(S(=O)(=O)Nc3cnc(-c4ccc(F)cc4)c(Cl)c3)cc2[nH]c1=O [Compound 379, N-[5-chloro-6-(4-fluorophenyl)-3-pyridyl]-7-cyclopropyl-2,3-dioxo-1,4-dihydroquinoxaline-6-sulfonamide] | 6.00 to 7.00 | 6.00 to 7.00 | – |
| O=c1[nH]c2cc(NCCO)c(S(=O)(=O)Nc3ccc(OC(F)(F)F)cc3)cc2[nH]c1=O [Compound 281, 7-(2-hydroxyethylamino)-2,3-dioxo-N-[4-(trifluoromethoxy)phenyl]-1,4-dihydroquinoxaline-6-sulfonamide] | > 7.52 | > 7.52 | – |
| Cc1cc2[nH]c(=O)c(=O)[nH]c2cc1S(=O)(=O)Nc1ccc2c(c1)CCC2 [Compound 79, N-(2,3-dihydro-1H-inden-5-yl)-7-methyl-2,3-dioxo-1,2,3,4-tetrahydroquinoxaline-6-sulfonamide] | – | 7.00 to 7.52 | 6.00 to 7.00 |
| Cc1cc2[nH]c(=O)c(=O)[nH]c2cc1S(=O)(=O)Nc1ccc(-c2cc(F)c3c(c2)NCCO3)c(Cl)c1 [Compound 357, N-[3-chloro-4-(8-fluoro-3,4-dihydro-2H-1,4-benzoxazin-6-yl)phenyl]-7-methyl-2,3-dioxo-1,4-dihydroquinoxaline-6-sulfonamide] | > 7.52 | 6.00 to 7.00 | – |
